Measurements reported in patent publication US10526327B2, “Histone demethylase inhibitors” (CELGENE QUANTICEL RESEARCH, INC., priority 2013, dated 2020).

These compounds were tested against T1, Jarid1A (Homo sapiens, UniProt P29375) (assay: Jarid1A in vitro enzyme inhibition assay (TR-FRET)).
T1 construct: purchased BPS Bioscience 50110
T1 sequence (P29375 1-1090): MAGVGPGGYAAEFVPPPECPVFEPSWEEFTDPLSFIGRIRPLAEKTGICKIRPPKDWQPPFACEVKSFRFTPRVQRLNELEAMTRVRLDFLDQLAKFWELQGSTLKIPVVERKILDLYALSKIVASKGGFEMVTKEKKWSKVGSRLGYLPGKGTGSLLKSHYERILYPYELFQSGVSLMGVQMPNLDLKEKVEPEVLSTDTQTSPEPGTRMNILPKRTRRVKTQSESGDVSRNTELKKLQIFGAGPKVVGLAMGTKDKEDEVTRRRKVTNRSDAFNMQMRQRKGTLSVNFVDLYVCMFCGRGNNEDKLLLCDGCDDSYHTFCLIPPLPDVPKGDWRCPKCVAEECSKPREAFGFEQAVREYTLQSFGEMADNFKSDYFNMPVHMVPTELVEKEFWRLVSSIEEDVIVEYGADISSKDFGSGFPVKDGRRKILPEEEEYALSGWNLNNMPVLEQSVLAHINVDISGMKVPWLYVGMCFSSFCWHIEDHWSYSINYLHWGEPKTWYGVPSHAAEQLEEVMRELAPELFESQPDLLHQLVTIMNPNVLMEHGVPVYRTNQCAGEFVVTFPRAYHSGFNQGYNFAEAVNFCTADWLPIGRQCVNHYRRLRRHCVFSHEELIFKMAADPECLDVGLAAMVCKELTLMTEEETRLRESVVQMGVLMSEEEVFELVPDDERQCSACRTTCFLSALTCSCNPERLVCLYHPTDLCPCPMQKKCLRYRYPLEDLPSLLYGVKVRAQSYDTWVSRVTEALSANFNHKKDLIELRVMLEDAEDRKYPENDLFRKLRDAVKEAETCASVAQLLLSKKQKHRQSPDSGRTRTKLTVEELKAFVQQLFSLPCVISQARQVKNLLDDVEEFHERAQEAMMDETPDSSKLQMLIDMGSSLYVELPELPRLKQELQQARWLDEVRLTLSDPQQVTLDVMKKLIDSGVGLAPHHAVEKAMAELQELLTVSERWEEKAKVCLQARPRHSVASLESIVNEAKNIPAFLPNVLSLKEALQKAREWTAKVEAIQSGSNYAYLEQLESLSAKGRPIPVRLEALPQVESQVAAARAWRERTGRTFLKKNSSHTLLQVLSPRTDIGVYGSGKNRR
Type: biochemical
Summary of the method: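 Demethylation of 300 nM biotin-H3K4me3 peptide by 1 nM baculovirus-expressed Jarid1A (aa 1–1090) with 2 μM α-ketoglutarate, Fe(II) and ascorbate, pH 7.3, 30 min at room temperature. Stopped with EDTA; H3K4me1-2 product detected by TR-FRET (Eu anti-H3K4me1-2/streptavidin-APC). IC50 fitted from 665/615 ratio over 11-point dilutions.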

Row | Structure (SMILES) | IC50 [nM]
1 | CC(C)Oc1nc(O)c2ccncc2n1 [Example 1, 2-propan-2-yloxy-3H-pyrido[3,4-d]pyrimidin-4-one] | 100 to 1000
2 | CCOc1nc(O)c2ccncc2n1 [Example 2, 2-ethoxypyrido[3,4-d]pyrimidin-4-ol] | ≤ 100
3 | Oc1nc(OCCOCC(F)(F)F)nc2cnccc12 [Example 23, 2-[2-(2,2,2-trifluoroethoxy)ethoxy]pyrido[3,4-d]pyrimidin-4-ol] | 100 to 1000
4 | CC(C)(O)CCOc1nc(O)c2ccncc2n1 [Example 24, 2-(3-hydroxy-3-methylbutoxy)pyrido[3,4-d]pyrimidin-4-ol] | ≤ 100
5 | CC(CO)COc1nc(O)c2ccncc2n1 (stereo not drawn) [Example 25, 2-(3-hydroxy-2-methylpropoxy)pyrido[3,4-d]pyrimidin-4-ol] | 100 to 1000
6 | Oc1nc(OCC2CCCO2)nc2cnccc12 (stereo not drawn) [Example 26, 2-(oxolan-2-ylmethoxy)pyrido[3,4-d]pyrimidin-4-ol] | 100 to 1000
7 | Oc1nc(OCC2CCOC2)nc2cnccc12 (stereo not drawn) [Example 27, 2-(oxolan-3-ylmethoxy)pyrido[3,4-d]pyrimidin-4-ol] | 100 to 1000
8 | CC(=O)N(C)CCOc1nc(O)c2ccncc2n1 [Example 28, N-[2-(4-hydroxypyrido[3,4-d]pyrimidin-2-yl)oxyethyl]-N-methylacetamide] | 100 to 1000
9 | CC(C)OCCOc1nc(O)c2ccncc2n1 [Example 29, 2-(2-propan-2-yloxyethoxy)pyrido[3,4-d]pyrimidin-4-ol] | 100 to 1000
10 | Oc1nc(OCCOCc2ccccc2)nc2cnccc12 [Example 30, 2-(2-phenylmethoxyethoxy)pyrido[3,4-d]pyrimidin-4-ol] | 100 to 1000
11 | O=C(NCCOc1nc(O)c2ccncc2n1)c1ccccc1 [Example 31, N-[2-(4-hydroxypyrido[3,4-d]pyrimidin-2-yl)oxyethyl]benzamide] | ≤ 100
12 | N#Cc1cccc(COc2nc(O)c3ccncc3n2)c1 [Example 32, 3-[(4-hydroxypyrido[3,4-d]pyrimidin-2-yl)oxymethyl]benzonitrile] | 100 to 1000
13 | Cn1ccc(COc2nc(O)c3ccncc3n2)n1 [Example 33, 2-[(1-methylpyrazol-3-yl)methoxy]pyrido[3,4-d]pyrimidin-4-ol] | 1000 to 10000
14 | Oc1nc(Oc2ccccc2)nc2cnccc12 [Example 34, 2-phenoxypyrido[3,4-d]pyrimidin-4-ol] | ≤ 100
15 | Oc1nc(OCc2ccccc2C(F)(F)F)nc2cnccc12 [Example 177, 2-{[2-(trifluoromethyl)phenyl]methoxy}pyrido[3,4-d]pyrimidin-4-ol] | 1000 to 10000
16 | Oc1nc(OCc2ccccc2F)nc2cnccc12 [Example 178, 2-[(2-fluorophenyl)methoxy]pyrido[3,4-d]pyrimidin-4-ol] | 1000 to 10000
17 | Oc1nc(OCc2cccc(F)c2)nc2cnccc12 [Example 179, 2-[(3-fluorophenyl)methoxy]pyrido[3,4-d]pyrimidin-4-ol] | 1000 to 10000
18 | Oc1nc(OCc2ccc(F)cc2)nc2cnccc12 [Example 180, 2-[(4-fluorophenyl)methoxy]pyrido[3,4-d]pyrimidin-4-ol] | 1000 to 10000
19 | Oc1nc(OCc2cccc(F)c2F)nc2cnccc12 [Example 181, 2-[(2,3-difluorophenyl)methoxy]pyrido[3,4-d]pyrimidin-4-ol] | 1000 to 10000
20 | Oc1nc(OCc2cc(F)ccc2F)nc2cnccc12 [Example 182, 2-[(2,5-difluorophenyl)methoxy]pyrido[3,4-d]pyrimidin-4-ol] | 1000 to 10000

Now from value to compound:

Row | IC50 [nM] | Structure (SMILES)
21 | 1000 to 10000 | Oc1nc(OCc2c(F)cccc2F)nc2cnccc12 [Example 183, 2-[(2,6-difluorophenyl)methoxy]pyrido[3,4-d]pyrimidin-4-ol]
22 | 1000 to 10000 | Oc1nc(OCc2cccc3ccccc23)nc2cnccc12 [Example 184, 2-(naphthalen-1-ylmethoxy)pyrido[3,4-d]pyrimidin-4-ol]
23 | 1000 to 10000 | Oc1nc(OCc2ccccc2-c2ccccc2)nc2cnccc12 [Example 185, 2-[(2-phenylphenyl)methoxy]pyrido[3,4-d]pyrimidin-4-ol]
24 | 1000 to 10000 | Oc1nc(OCc2cccc(-c3ccccc3)c2)nc2cnccc12 [Example 186, 2-[(3-phenylphenyl)methoxy]pyrido[3,4-d]pyrimidin-4-ol]
25 | 1000 to 10000 | Oc1nc(OCc2ccc3ccccc3c2)nc2cnccc12 [Example 187, 2-(naphthalen-2-ylmethoxy)pyrido[3,4-d]pyrimidin-4-ol]
26 | 100 to 1000 | Oc1nc(OCC2CCCc3ccccc32)nc2cnccc12 (stereo not drawn) [Example 188, 2-(1,2,3,4-tetrahydronaphthalen-1-ylmethoxy)pyrido[3,4-d]pyrimidin-4-ol]
27 | 100 to 1000 | Oc1nc(OC2Cc3ccccc3C2)nc2cnccc12 [Example 189, 2-(2,3-dihydro-1H-inden-2-yloxy)pyrido[3,4-d]pyrimidin-4-ol]
28 | 100 to 1000 | Oc1nc(OCC2CCc3ccccc32)nc2cnccc12 (stereo not drawn) [Example 190, 2-(2,3-dihydro-1H-inden-1-ylmethoxy)pyrido[3,4-d]pyrimidin-4-ol]
29 | 100 to 1000 | Oc1nc(OCC2CCc3ccccc3C2)nc2cnccc12 (stereo not drawn) [Example 191, 2-(1,2,3,4-tetrahydronaphthalen-2-ylmethoxy)pyrido[3,4-d]pyrimidin-4-ol]
30 | 1000 to 10000 | Oc1nc(OC2CCc3ccccc32)nc2cnccc12 (stereo not drawn) [Example 192, 2-(2,3-dihydro-1H-inden-1-yloxy)pyrido[3,4-d]pyrimidin-4-ol]
31 | 100 to 1000 | Oc1nc(OCc2coc3ccccc23)nc2cnccc12 [Example 193, 2-(1-benzofuran-3-ylmethoxy)pyrido[3,4-d]pyrimidin-4-ol]
32 | 1000 to 10000 | Oc1nc(OCC2COc3ccccc32)nc2cnccc12 (stereo not drawn) [Example 194, 2-(2,3-dihydro-1-benzofuran-3-ylmethoxy)pyrido[3,4-d]pyrimidin-4-ol]
33 | 100 to 1000 | Oc1nc(OCC2CCOc3ccccc32)nc2cnccc12 (stereo not drawn) [Example 195, 2-(3,4-dihydro-2H-1-benzopyran-4-ylmethoxy)pyrido[3,4-d]pyrimidin-4-ol]
34 | 1000 to 10000 | Oc1nc(OC2CCCc3ccccc32)nc2cnccc12 (stereo not drawn) [Example 196, 2-(1,2,3,4-tetrahydronaphthalen-1-yloxy)pyrido[3,4-d]pyrimidin-4-ol]
35 | 100 to 1000 | Oc1nc(OC2CCOc3ccccc32)nc2cnccc12 (stereo not drawn) [Example 197, 2-(3,4-dihydro-2H-1-benzopyran-4-yloxy)pyrido[3,4-d]pyrimidin-4-ol]
36 | 100 to 1000 | Cn1cnc(-c2nccc3c(=O)[nH]cnc23)c1 [Example 198, 8-(1-methylimidazol-4-yl)-3H-pyrido[3,4-d]pyrimidin-4-one]
